Experimental data published in PubChem BioAssay AID212 (DTP/NCI, 2004).
Where “and” joins values, the source holds several entries; their conditions need not be identical. Identical values can stand only once. Results filed as inconclusive are left out.

Test system: BDF1 mice, colon carcinoma 38 sc, T/C %
Assay: NCI In Vivo Anticancer Drug Screen. Data for tumor model Colon Carcinoma 38 (subcutaneous) in B6D2F1 (BDF1) mice
Details: endpoint: median tumor weight (est.), higher = larger tumour
Description: The antitumor activity of compounds was measured in mice bearing transplantable tumors. Survival or tumor size were measured and the results are expressed as the measurement made in the treated group (T) divided by the measurement made in the vehicle treated control group (C). The tumor model used in this assay is Colon Carcinoma 38 (subcutaneous) in B6D2F1 (BDF1) mice

[1] = dose: 25.0 mg/kg/injection, schedule: Q07DX002 (ip), vehicle: Klucel (hydroxypropylcellulose) (HPC)
[2] = dose: 100.0 mg/kg/injection, schedule: Q07DX002 (ip), vehicle: Klucel (hydroxypropylcellulose) (HPC)
[3] = dose: 200.0 mg/kg/injection, schedule: Q07DX002 (ip), vehicle: Klucel (hydroxypropylcellulose) (HPC)
[4] = dose: 400.0 mg/kg/injection, schedule: Q07DX002 (ip), vehicle: Klucel (hydroxypropylcellulose) (HPC)
[5] = dose: 25.0 mg/kg/injection, schedule: Q07DX002 (ip), vehicle: saline with Tween-80
[6] = dose: 50.0 mg/kg/injection, schedule: Q07DX002 (ip), vehicle: Klucel (hydroxypropylcellulose) (HPC)
[7] = dose: 50.0 mg/kg/injection, schedule: Q07DX002 (ip), vehicle: saline with Tween-80
[8] = dose: 100.0 mg/kg/injection, schedule: Q07DX002 (ip), vehicle: saline with Tween-80
[9] = dose: 200.0 mg/kg/injection, schedule: Q07DX002 (ip), vehicle: saline with Tween-80
[10] = dose: 2.5 mg/kg/injection, schedule: Q07DX002 (ip), vehicle: saline
[11] = dose: 5.0 mg/kg/injection, schedule: Q07DX002 (ip), vehicle: saline
[12] = dose: 10.0 mg/kg/injection, schedule: Q07DX002 (ip), vehicle: saline
[13] = dose: 200.0 mg/kg/injection, schedule: Q07DX002 (ip), vehicle: saline
[14] = dose: 400.0 mg/kg/injection, schedule: Q07DX002 (ip), vehicle: saline
[15] = dose: 3.12 mg/kg/injection, schedule: Q07DX002 (ip), vehicle: saline
[16] = dose: 12.5 mg/kg/injection, schedule: Q07DX002 (ip), vehicle: saline
[17] = dose: 25.0 mg/kg/injection, schedule: Q07DX002 (ip), vehicle: saline
[18] = dose: 6.25 mg/kg/injection, schedule: Q07DX002 (ip), vehicle: saline with Tween-80
[19] = dose: 12.5 mg/kg/injection, schedule: Q07DX002 (ip), vehicle: saline with Tween-80
[20] = dose: 50.0 mg/kg/injection, schedule: Q07DX002 (ip), vehicle: saline
[21] = dose: 100.0 mg/kg/injection, schedule: Q07DX002 (ip), vehicle: saline

## Nc1nc(=S)c2ncn(C3CC(O)C(CO)O3)c2[nH]1 (configuration not stated)
dose: 4.0 mg/kg/injection, schedule: Q07DX003 (ip), vehicle: saline with Tween-80
  T/C: 63 % of control
dose: 5.0 mg/kg/injection, schedule: Q07DX003 (ip), vehicle: saline with Tween-80
  T/C: 32 % of control
dose: 8.0 mg/kg/injection, schedule: Q07DX003 (ip), vehicle: saline with Tween-80
  T/C: 111 % of control
dose: 10.0 mg/kg/injection, schedule: Q07DX003 (ip), vehicle: saline with Tween-80
  T/C: 22 % of control
dose: 16.0 mg/kg/injection, schedule: Q07DX003 (ip), vehicle: saline with Tween-80
  T/C: 39 % of control
dose: 20.0 mg/kg/injection, schedule: Q07DX003 (ip), vehicle: saline with Tween-80
  T/C: 25 % of control
dose: 32.0 mg/kg/injection, schedule: Q07DX003 (ip), vehicle: saline with Tween-80
  T/C: 89 % of control
dose: 40.0 mg/kg/injection, schedule: Q07DX003 (ip), vehicle: saline with Tween-80
  T/C: 14 % of control
dose: 64.0 mg/kg/injection, schedule: Q07DX003 (ip), vehicle: saline with Tween-80
  T/C: 110 % of control
dose: 80.0 mg/kg/injection, schedule: Q07DX003 (ip), vehicle: saline with Tween-80
  T/C: 4 % of control
dose: 128.0 mg/kg/injection, schedule: Q07DX003 (ip), vehicle: saline with Tween-80
  T/C: 36 % of control

## CCOC(=O)CNC(=O)Sc1ccc(C(C)(C)C)cc1
[1]
  T/C: 117 % of control and 97 % of control
[2]
  T/C: 111 % of control and 95 % of control
[3]
  T/C: 78 % of control and 81 % of control
[4]
  T/C: 78 % of control and 102 % of control
dose: 800.0 mg/kg/injection, schedule: Q07DX002 (ip), vehicle: Klucel (hydroxypropylcellulose) (HPC)
  T/C: 54 % of control

## O=Cc1ccccc1
[1]
  T/C: 77 % of control
[5]
  T/C: 69 % of control
[6]
  T/C: 83 % of control
[7]
  T/C: 77 % of control
[2]
  T/C: 98 % of control
[8]
  T/C: 108 % of control
[3]
  T/C: 60 % of control
[9]
  T/C: 112 % of control
[4]
  T/C: 97 % of control

## CC(C)CC(=O)NC(C(=O)NC(C(=O)NC(CC(C)C)C(O)CC(=O)NC(C)C(=O)NC(CC(C)C)C(O)CC(=O)O)C(C)C)C(C)C (configuration not stated)
[1]
  T/C: 79 % of control
[6]
  T/C: 109 % of control
[2]
  T/C: 95 % of control
[3]
  T/C: 120 % of control

## CC(O)CCC(=O)c1ccoc1 (configuration not stated)
dose: 0.63 mg/kg/injection, schedule: Q07DX002 (ip), vehicle: saline
  T/C: 150 % of control
dose: 1.25 mg/kg/injection, schedule: Q03HX006 (ip), vehicle: saline
  T/C: 42 % of control
dose: 2.5 mg/kg/injection, schedule: Q03HX006 (ip), vehicle: saline
  T/C: 64 % of control
[10]
  T/C: 166 % of control
dose: 5.0 mg/kg/injection, schedule: Q03HX006 (ip), vehicle: saline
  T/C: 58 % of control
[11]
  T/C: 150 % of control
[12]
  T/C: 185 % of control

## Cc1cn(C2CC(F)C(CO)O2)c(=O)[nH]c1=O (configuration not stated)
dose: 50.0 mg/kg/injection, schedule: Q01DX001 (ip), vehicle: Klucel (hydroxypropylcellulose) (HPC)
  T/C: 204 % of control
dose: 100.0 mg/kg/injection, schedule: Q01DX001 (ip), vehicle: Klucel (hydroxypropylcellulose) (HPC)
  T/C: 193 % of control
dose: 200.0 mg/kg/injection, schedule: Q01DX001 (ip), vehicle: Klucel (hydroxypropylcellulose) (HPC)
  T/C: 182 % of control
[13]
  T/C: 119 % of control
dose: 400.0 mg/kg/injection, schedule: Q01DX001 (ip), vehicle: Klucel (hydroxypropylcellulose) (HPC)
  T/C: 165 % of control
[14]
  T/C: 103 % of control
dose: 800.0 mg/kg/injection, schedule: Q07DX002 (ip), vehicle: saline
  T/C: 117 % of control
dose: 1600.0 mg/kg/injection, schedule: Q07DX002 (ip), vehicle: saline
  T/C: 100 % of control

## O=CC(O)C(O)C(O)C(O)C(=O)O.[NH-]C1CCCCC1[NH-].[Pt+2] (configuration not stated)
[15]
  T/C: 56 % of control
dose: 6.25 mg/kg/injection, schedule: Q07DX002 (ip), vehicle: saline
  T/C: 23 % of control and 24 % of control and 34 % of control
[16]
  T/C: 10 % of control and 22 % of control and 34 % of control
[17]
  T/C: 12 % of control and 15 % of control

## CCOC1=Cc2c(oc3c(C(C)(C)C)cc(OCC)cc23)OC(C(C)(C)C)=C1
dose: 0.78 mg/kg/injection, schedule: Q07DX002 (ip), vehicle: saline with Tween-80
  T/C: 94 % of control
dose: 1.56 mg/kg/injection, schedule: Q07DX002 (ip), vehicle: saline with Tween-80
  T/C: 102 % of control
[18]
  T/C: 83 % of control (2×) and 88 % of control
[19]
  T/C: 64 % of control and 65 % of control
[5]
  T/C: 55 % of control and 64 % of control
[7]
  T/C: 51 % of control and 65 % of control
[8]
  T/C: 72 % of control and 77 % of control

## COc1cc(O)c2c(O)c3c(c4c2c1[C@]1(C4)C(C)=CCCC1(C)C)[C@H](O)[C@@]1(O)CC(=O)C(C(N)=O)=C(O)[C@@]1(O)C3=O
[18]
  T/C: 92 % of control and 97 % of control
[5]
  T/C: 87 % of control and 101 % of control

## CS(=O)(=O)Nc1ccc(C(=O)CCN2CCCCCC2)cc1
[7]
  T/C: 96 % of control
[8]
  T/C: 86 % of control
[9]
  T/C: 95 % of control

## CSc1cc(C)[o+]c(C)c1
[1]
  T/C: 117 % of control
[6]
  T/C: 184 % of control
[3]
  T/C: 108 % of control

## O/N=C/c1ccccc1O.O/N=C/c1ccccc1O.[Cu]
dose: 3.12 mg/kg/injection, schedule: Q07DX002 (ip), vehicle: saline with Tween-80
  T/C: 89 % of control and 100 % of control
[18]
  T/C: 92 % of control and 100 % of control
[19]
  T/C: 102 % of control and 108 % of control
[5]
  T/C: 87 % of control and 104 % of control

## C1OC1CN1CCN(CC2CO2)CC1 (configuration not stated)
[15]
  T/C: 98 % of control
dose: 3.12 mg/kg/injection, schedule: Q07DX003 (ip), vehicle: saline
  T/C: 1 % of control
dose: 6.25 mg/kg/injection, schedule: Q07DX003 (ip), vehicle: saline
  T/C: 23 % of control
[16]
  T/C: 77 % of control
dose: 12.5 mg/kg/injection, schedule: Q07DX003 (ip), vehicle: saline
  T/C: 9 % of control
[17]
  T/C: 100 % of control
dose: 25.0 mg/kg/injection, schedule: Q07DX003 (ip), vehicle: saline
  T/C: 20 % of control
[20]
  T/C: 77 % of control
dose: 50.0 mg/kg/injection, schedule: Q07DX003 (ip), vehicle: saline
  T/C: 4 % of control

## C[PH+](C)C.C[PH+](C)C.[Au]
dose: 1.25 mg/kg/injection, schedule: Q07DX002 (ip), vehicle: saline
  T/C: 99 % of control
[10]
  T/C: 84 % of control
[11]
  T/C: 87 % of control
[12]
  T/C: 65 % of control

## c1ccc2c(c1)[As]=c1ccccc1=[As]2 (configuration not stated)
dose: 3.0 mg/kg/injection, schedule: Q07DX002 (ip), vehicle: saline
  T/C: 124 % of control

## COC12C(COC(N)=O)C3=C(C(=O)C(C)=C(N)C3=O)N1CC1C2N1C (configuration not stated)
dose: 2.0 mg/kg/injection, schedule: Q07DX002 (ip), vehicle: saline
  T/C: 93 % of control
dose: 4.0 mg/kg/injection, schedule: Q07DX002 (ip), vehicle: saline
  T/C: 87 % of control
dose: 8.0 mg/kg/injection, schedule: Q07DX002 (ip), vehicle: saline
  T/C: 100 % of control
dose: 16.0 mg/kg/injection, schedule: Q07DX002 (ip), vehicle: saline
  T/C: 55 % of control
dose: 32.0 mg/kg/injection, schedule: Q07DX002 (ip), vehicle: saline
  T/C: 11 % of control
dose: 64.0 mg/kg/injection, schedule: Q07DX002 (ip), vehicle: saline
  T/C: 12 % of control

## CCC(C(=O)O)C(=O)O.[NH-]CC1CCCC[N-]1.[Pt+2]
[17]
  T/C: 305 % of control
[20]
  T/C: 404 % of control
[21]
  T/C: 209 % of control
[13]
  T/C: 239 % of control

## O=C(O)CCc1cccc2c(=O)cc(-c3ccccc3)oc12
[21]
  T/C: 60 % of control
[13]
  T/C: 100 % of control
[14]
  T/C: 120 % of control

## O=CN(SSN(C=O)C1CCCCC1)C1CCCCC1
[5]
  T/C: 98 % of control and 99 % of control
[7]
  T/C: 77 % of control and 78 % of control
[9]
  T/C: 113 % of control and 98 % of control
